Patent US20230295200A1 (REGENTS OF THE UNIVERSITY OF MICHIGAN, priority 2022, published 2023)

The molecules below were run against T1, STAT6 protein (Homo sapiens, UniProt P42226) (assay: Fluorescence polarization (FP) binding assay, STAT6). Conditions: FP competition, 5 nM fluorescein-labeled tracer, 200 nM protein, PBS pH7.4; read-out: Binding STAT6.
T1 sequence (P42226 1-847): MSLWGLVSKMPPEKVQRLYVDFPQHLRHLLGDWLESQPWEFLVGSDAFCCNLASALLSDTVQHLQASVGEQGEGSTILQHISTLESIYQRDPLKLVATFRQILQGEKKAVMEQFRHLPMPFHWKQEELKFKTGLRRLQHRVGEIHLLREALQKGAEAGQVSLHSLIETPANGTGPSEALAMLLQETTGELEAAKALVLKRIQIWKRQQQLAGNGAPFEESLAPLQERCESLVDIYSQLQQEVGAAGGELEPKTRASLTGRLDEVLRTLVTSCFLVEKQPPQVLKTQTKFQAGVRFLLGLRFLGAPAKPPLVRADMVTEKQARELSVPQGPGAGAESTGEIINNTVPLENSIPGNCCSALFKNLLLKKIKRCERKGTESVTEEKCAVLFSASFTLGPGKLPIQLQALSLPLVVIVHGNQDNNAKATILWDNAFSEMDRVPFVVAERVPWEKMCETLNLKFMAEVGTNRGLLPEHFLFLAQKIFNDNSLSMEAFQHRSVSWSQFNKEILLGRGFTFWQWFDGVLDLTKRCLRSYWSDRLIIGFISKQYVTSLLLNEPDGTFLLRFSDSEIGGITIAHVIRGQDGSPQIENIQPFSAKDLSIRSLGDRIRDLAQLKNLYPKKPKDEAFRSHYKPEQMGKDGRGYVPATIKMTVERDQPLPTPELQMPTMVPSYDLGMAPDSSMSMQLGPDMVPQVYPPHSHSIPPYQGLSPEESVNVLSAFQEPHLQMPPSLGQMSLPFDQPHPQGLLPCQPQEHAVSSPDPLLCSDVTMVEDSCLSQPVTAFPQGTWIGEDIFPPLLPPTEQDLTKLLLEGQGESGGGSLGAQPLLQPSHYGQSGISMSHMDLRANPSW
Procedure: Evaluation of the activity of the inhibitors may be accomplished by fluorescence polarization (FP) experiments. A representative general protocol is the following:
Fluorescence polarization (FP) experiments are performed in black round-bottom plates using the CLARIOstar microplate reader. To each well, fluorescein-labeled tracer and STAT5 or STAT6 protein are added in assay buffer. […] The inhibition constants are determined as the concentration of the STAT5 or STAT6 at which 50% of the ligand is bound.
Fluorescence polarization (FP) experiments were performed in 96-well, black round-bottom plates (Microfluor 2, Fisher Scientific) using the CLARIOstar microplate reader (BMG Labtech). To each well, 5 nM of fluoresceinlabeled tracer and 200 nM of STAT5 and/or STAT6 protein were added to a final volume of 100 μl in the assay buffer (PBS pH7.4+0.01% BGG+0.01% Tween-20, 2 mM DTT). The plate was mixed on a shaker for 15 m and incubated at room temperature for 1 h to reach equilibrium. […] All experimental data were analyzed using Prism 8.0 software (GraphPad Software), and the inhibition constants were determined by nonlinear curve fitting as the concentration of the STAT5 and/or STAT6 at which 50% of the ligand is bound.

Ki [nM] | SMILES
100 to 1000 | CCOC(=O)CO[C@H]1C[C@@H](C(=O)N(CCC(=O)O)c2ccc(Br)cc2)N(C(=O)[C@@H](NC(=O)c2cc3cc(C(F)(F)P(=O)(O)O)ccc3s2)C(C)(C)C)C1 [Compound 47, 3-((2S,4S)-N-(4-bromophenyl)-1-((S)-2-(5-(difluoro(phosphono)methyl)benzo [b]thiophene-2-carboxamido)-3,3-dimethylbutanoyl)-4-(2-ethoxy-2-oxoethoxy)pyrrolidine-2-carboxamido)propanoic acid]
100 to 1000 | CCOC(=O)CO[C@@H]1C[C@@H](C(=O)N(CCC(=O)O)c2ccc(Br)cc2)N(C(=O)[C@@H](NC(=O)c2cc3cc(C(F)(F)P(=O)(O)O)ccc3s2)C(C)(C)C)C1 [Compound 48, 3-((2S,4R)-N-(4-bromophenyl)-1-((S)-2-(5-(difluoro(phosphono)methyl)benzo[b]thiophene-2-carboxamido)-3,3-dimethylbutanoyl)-4-(2-ethoxy-2-oxoethoxy)pyrrolidine-2-carboxamido)propanoic acid]
100 to 1000 | CCCN(C(=O)[C@@H]1C[C@H](OCC(=O)OCC)CN1C(=O)[C@@H](NC(=O)c1cc2cc(C(F)(F)P(=O)(O)O)ccc2s1)C(C)(C)C)c1ccc(Br)cc1 [Compound 55, ((2-(((S)-1-((2S,4S)-2-((4-bromophenyl)(propyl)carbamoyl)-4-(2-ethoxy-2-oxoethoxy)pyrrolidin-1-yl)-3,3-dimethyl-1-oxobutan-2-yl)carbamoyl)benzo[b]thiophen-5-yl)difluoromethyl)phosphonic acid]
100 to 1000 | CCOC(=O)CO[C@H]1C[C@@H](C(=O)N(CCC(=O)NC)c2ccc(Br)cc2)N(C(=O)[C@@H](NC(=O)c2cc3cc(C(F)(F)P(=O)(O)O)ccc3s2)C(C)(C)C)C1 [Compound 56, ((2-(((S)-1-((2S,4S)-2-((4-bromophenyl)(3-(methylamino)-3-oxopropyl)carbamoyl)-4-(2-ethoxy-2-oxoethoxy)pyrrolidin-1-yl)-3,3-dimethyl-1-oxobutan-2-yl)carbamoyl)benzo[b]thiophen-5-yl)difluoromethyl)phosphonic acid]
100 to 1000 | CCOC(=O)CO[C@H]1C[C@@H](C(=O)N(CCC(=O)N(C)C)c2ccc(Br)cc2)N(C(=O)[C@@H](NC(=O)c2cc3cc(C(F)(F)P(=O)(O)O)ccc3s2)C(C)(C)C)C1 [Compound 57, ((2-(((S)-1-((2S,4S)-2-((4-bromophenyl)(3-(dimethylamino)-3-oxopropyl)carbamoyl)-4-(2-ethoxy-2-oxoethoxy)pyrrolidin-1-yl)-3,3-dimethyl-1-oxobutan-2-yl)carbamoyl)benzo[b]thiophen-5-yl)difluoromethyl)phosphonic acid]

More lines, now with the values behind:

SMILES | Ki [nM]
CC(C)(C)[C@H](NC(=O)c1cc2cc(C(F)(F)P(=O)(O)O)ccc2s1)C(=O)N1C[C@@H](OCC(=O)O)C[C@H]1C(=O)N(CCC(=O)O)c1ccc(Br)cc1 [Compound 49, 3-((2S,4S)-N-(4-bromophenyl)-4-(carboxymethoxy)-1-((S)-2-(5-(difluoro(phosphono)methyl)benzo[b]thiophene-2-carboxamido)-3,3-dimethylbutanoyl)pyrrolidine-2-carboxamido)propanoic acid] | 100 to 1000
CC(C)(C)[C@H](NC(=O)c1cc2cc(C(F)(F)P(=O)(O)O)ccc2s1)C(=O)N1C[C@H](OCC(=O)O)C[C@H]1C(=O)N(CCC(=O)O)c1ccc(Br)cc1 [Compound 50, 3-((2S,4R)-N-(4-bromophenyl)-4-(carboxymethoxy)-1-((S)-2-(5-(difluoro(phosphono)methyl)benzo[b]thiophene-2-carboxamido)-3,3-dimethylbutanoyl)pyrrolidine-2-carboxamido)propanoic acid] | 100 to 1000
CNC(=O)CCN(C(=O)[C@@H]1C[C@H](OCC(=O)NC)CN1C(=O)[C@@H](NC(=O)c1cc2cc(C(F)(F)P(=O)(O)O)ccc2s1)C(C)(C)C)c1ccc(Br)cc1 [Compound 51, ((2-(((S)-1-((2S,4S)-2-((4-bromophenyl)(3-(methylamino)-3-oxopropyl)carbamoyl)-4-(2-(methylamino)-2-oxoethoxy)pyrrolidin-1-yl)-3,3-dimethyl-1-oxobutan-2-yl)carbamoyl)benzo[b]thiophen-5-yl)difluoromethyl)phosphonic acid] | 100 to 1000
CNC(=O)CCN(C(=O)[C@@H]1C[C@@H](OCC(=O)NC)CN1C(=O)[C@@H](NC(=O)c1cc2cc(C(F)(F)P(=O)(O)O)ccc2s1)C(C)(C)C)c1ccc(Br)cc1 [Compound 52, ((2-(((S)-1-((2S,4R)-2-((4-bromophenyl)(3-(methylamino)-3-oxopropyl)carbamoyl)-4-(2-(methylamino)-2-oxoethoxy)pyrrolidin-1-yl)-3,3-dimethyl-1-oxobutan-2-yl)carbamoyl)benzo[b]thiophen-5-yl)difluoromethyl)phosphonic acid] | 100 to 1000
CCOC(=O)CO[C@H]1C[C@@H](C(=O)Nc2ccc(I)cc2)N(C(=O)[C@@H](NC(=O)c2cc3cc(C(F)(F)P(=O)(O)O)ccc3s2)C(C)(C)C)C1 [Compound 53, ((2-(((S)-1-((2S,4S)-4-(2-ethoxy-2-oxoethoxy)-2-((4-iodophenyl)carbamoyl)pyrrolidin-1-yl)-3,3-dimethyl-1-oxobutan-2-yl)carbamoyl)benzo[b]thiophen-5-yl)difluoromethyl)phosphonic acid] | 1000 to 10000
CCOC(=O)CO[C@H]1C[C@@H](C(=O)N(C)c2ccc(Br)cc2)N(C(=O)[C@@H](NC(=O)c2cc3cc(C(F)(F)P(=O)(O)O)ccc3s2)C(C)(C)C)C1 [Compound 54, ((2-(((S)-1-((2S,4S)-2-((4-bromophenyl)(methyl)carbamoyl)-4-(2-ethoxy-2-oxoethoxy)pyrrolidin-1-yl)-3,3-dimethyl-1-oxobutan-2-yl)carbamoyl)benzo[b]thiophen-5-yl)difluoromethyl)phosphonic acid] | 100 to 1000
CC(C)(C)[C@H](NC(=O)c1cc2cc(C(F)(F)P(=O)(O)O)ccc2s1)C(=O)N1Cc2ccccc2C[C@H]1C(=O)N1CCOC(c2cccnc2)C1 (stereo partly drawn) [Compound 217, ((2-(((2S)-3,3-dimethyl-1-oxo-1-((3S)-3-(2-(pyridin-3-yl)morpholine-4-carbonyl)-3,4-dihydroisoquinolin-2(1H)-yl)butan-2-yl)carbamoyl)benzo[b]thiophen-5-yl)difluoromethyl)phosphonic acid] | < 100
CC(C)(C)[C@H](NC(=O)c1cc2cc(C(F)(F)P(=O)(O)O)ccc2s1)C(=O)N1Cc2ccccc2C[C@H]1C(=O)N1CCOC(c2ccncc2)C1 (stereo partly drawn) [Compound 218, ((2-(((2S)-3,3-dimethyl-1-oxo-1-((3S)-3-(2-(pyridin-4-yl)morpholine-4-carbonyl)-3,4-dihydroisoquinolin-2(1H)-yl)butan-2-yl)carbamoyl)benzo[b]thiophen-5-yl)difluoromethyl)phosphonic acid] | 100 to 1000
CC(C)(C)[C@H](NC(=O)c1cc2cc(C(F)(F)P(=O)(O)O)ccc2s1)C(=O)N1Cc2ccccc2C[C@H]1C(=O)N1CCOC(c2nccs2)C1 (stereo partly drawn) [Compound 219, ((2-(((2S)-3,3-dimethyl-1-oxo-1-((3S)-3-(2-(thiazol-2-yl)morpholine-4-carbonyl)-3,4-dihydroisoquinolin-2(1H)-yl)butan-2-yl)carbamoyl)benzo[b]thiophen-5-yl)difluoromethyl)phosphonic acid] | < 100
CC(C)(C)[C@H](NC(=O)c1cc2cc(C(F)(F)P(=O)(O)O)ccc2s1)C(=O)N1Cc2ccccc2C[C@H]1C(=O)N1CCCOC(c2ccccc2)C1 (stereo partly drawn) [Compound 220, ((2-(((2S)-3,3-dimethyl-1-oxo-1-((3S)-3-(2-phenyl-1,4-oxazepane-4-carbonyl)-3,4-dihydroisoquinolin-2(1H)-yl)butan-2-yl)carbamoyl)benzo[b]thiophen-5-yl)difluoromethyl)phosphonic acid] | 100 to 1000
CC(C)(C)[C@H](NC(=O)c1cc2cc(C(F)(F)P(=O)(O)O)ccc2s1)C(=O)N1Cc2ccccc2C[C@H]1C(=O)N1CCOC(Cc2ccccc2)C1 (stereo partly drawn) [Compound 221, ((2-(((2S)-1-((3S)-3-(2-benzylmorpholine-4-carbonyl)-3,4-dihydroisoquinolin-2(1H)-yl)-3,3-dimethyl-1-oxobutan-2-yl)carbamoyl)benzo[b]thiophen-5-yl)difluoromethyl)phosphonic acid] | 100 to 1000
